Experimental data taken from ChEMBL document CHEMBL1136933 (J Med Chem, 2009).
pEC50: −log10 of the molar value.

How the values were obtained:
Format in all cases: functional, cell-based
[1] = biological target: T1, Muscarinic acetylcholine receptor M1 (Rattus norvegicus, UniProt P08482); experiment: Activation of rat muscarinic M1 receptor expressed in CHO cells co-expressing Gq protein assessed as potentiation of acetylcholine-induced intracellular Ca2+ mobilization
T1 sequence (P08482 whole entry): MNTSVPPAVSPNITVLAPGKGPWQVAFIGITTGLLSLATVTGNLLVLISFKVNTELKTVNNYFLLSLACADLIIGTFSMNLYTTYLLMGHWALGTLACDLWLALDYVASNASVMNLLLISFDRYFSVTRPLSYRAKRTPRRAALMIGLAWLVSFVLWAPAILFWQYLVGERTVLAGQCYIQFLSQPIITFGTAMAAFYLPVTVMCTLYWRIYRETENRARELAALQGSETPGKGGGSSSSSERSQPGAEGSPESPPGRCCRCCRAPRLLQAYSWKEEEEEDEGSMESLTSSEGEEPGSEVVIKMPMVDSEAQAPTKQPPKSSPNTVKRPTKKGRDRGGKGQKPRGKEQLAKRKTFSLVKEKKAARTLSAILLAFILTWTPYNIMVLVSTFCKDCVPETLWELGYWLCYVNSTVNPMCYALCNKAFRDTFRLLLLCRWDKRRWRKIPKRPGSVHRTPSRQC

[2] = biological target: T2, Muscarinic acetylcholine receptor M1 (Rattus norvegicus) (UniProt P08482); experiment: Activation of rat muscarinic M1 receptor expressed in CHO cells co-expressing Gq protein assessed as potentiation of acetylcholine-induced intracellular Ca2+ mobilization at 30 uM relative to acetylcholine
T2 sequence (whole entry): T1 sequence (P08482 whole entry)

[3] = biological target: T3, Muscarinic acetylcholine receptor M5 (Homo sapiens, UniProt P08912); experiment: Activation of human muscarinic M5 receptor expressed in CHO cells coexpressing Gq protein assessed as potentiation of acetylcholine-induced intracellular Ca2+ mobilization
T3 sequence (P08912 whole entry): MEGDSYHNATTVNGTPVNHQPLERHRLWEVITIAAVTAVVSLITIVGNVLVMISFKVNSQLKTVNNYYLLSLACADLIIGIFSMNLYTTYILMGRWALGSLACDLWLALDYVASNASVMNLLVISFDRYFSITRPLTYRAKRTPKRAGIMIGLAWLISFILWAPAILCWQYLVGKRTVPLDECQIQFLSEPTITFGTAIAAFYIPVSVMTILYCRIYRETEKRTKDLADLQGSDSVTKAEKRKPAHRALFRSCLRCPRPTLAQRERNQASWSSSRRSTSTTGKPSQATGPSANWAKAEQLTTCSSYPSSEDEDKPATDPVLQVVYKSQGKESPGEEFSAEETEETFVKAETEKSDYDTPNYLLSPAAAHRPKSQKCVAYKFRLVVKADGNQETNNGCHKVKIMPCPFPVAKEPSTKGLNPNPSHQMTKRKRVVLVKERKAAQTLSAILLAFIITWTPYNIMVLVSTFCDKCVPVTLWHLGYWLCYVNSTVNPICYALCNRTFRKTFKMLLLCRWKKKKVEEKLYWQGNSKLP

[4] = biological target: T4, Muscarinic acetylcholine receptor M5 (Homo sapiens) (UniProt P08912); experiment: Activation of human muscarinic M5 receptor expressed in CHO cells coexpressing Gq protein assessed as potentiation of acetylcholine-induced intracellular Ca2+ mobilization at 30 uM relative to acetylcholine
T4 sequence (whole entry): T3 sequence (P08912 whole entry)

## O=C1C(=O)N(Cc2ccc(Br)cc2F)c2ccc(OC(F)(F)F)cc21
[1]
  pEC50: < 4.52
[2]
  %max: 11.6%
[3]
  pEC50: < 5.00
[4]
  %max: 36.4%

## O=C1C(=O)N(Cc2ccccc2Cl)c2ccc(OC(F)(F)F)cc21
[1]
  pEC50: < 4.52
[2]
  %max: 12.3%
[3]
  pEC50: 5.39
[4]
  %max: 51.9%

## COc1ccc(CN2C(=O)C(=O)c3cccc(Cl)c32)cc1
[1]
  pEC50: 5.27
[2]
  %max: 49.4%
[3]
  pEC50: 5.40
[4]
  %max: 30.3%

## COc1ccc(CN2C(=O)C(=O)c3ccccc32)cc1
[1]
  pEC50: < 5.00
[2]
  %max: 43.6%
[3]
  pEC50: < 4.52
[4]
  %max: 29.2%

## O=C1C(=O)N(Cc2ccccc2F)c2ccc(OC(F)(F)F)cc21
[2]
  %max: 11.3%
[4]
  %max: 51.8%

## O=C1C(=O)N(Cc2ccccc2C(F)(F)F)c2ccc(F)cc21
[1]
  pEC50: 5.21
[2]
  %max: 47.8%
[3]
  pEC50: 5.39
[4]
  %max: 36.1%

## Cc1ccc2c(c1)C(=O)C(=O)N2Cc1ccc(Br)cc1F
[2]
  %max: 22.3%
[4]
  %max: 27.8%

## COc1cccc(CN2C(=O)C(=O)c3ccccc32)c1
[2]
  %max: 19.4%
[4]
  %max: 28%

## O=C1C(=O)N(Cc2ccc(Br)cc2F)c2ccc(Cl)cc21
[2]
  %max: 29.9%
[4]
  %max: 30.4%

## O=C1C(=O)N(Cc2ccccc2C(F)(F)F)c2c(Cl)cccc21
[2]
  %max: 31.1%
[4]
  %max: 14%

## COc1cccc(CN2C(=O)C(=O)c3c(Cl)ccc(Cl)c32)c1
[1]
  pEC50: < 4.52
[2]
  %max: 13.3%
[3]
  pEC50: 5.15
[4]
  %max: 35.1%

## O=C1C(=O)N(Cc2c(F)cccc2F)c2ccc(Cl)cc21
[2]
  %max: 27.3%
[4]
  %max: 31.8%

## O=C1C(=O)N(Cc2ccccc2C(F)(F)F)c2c(F)cccc21
[1]
  pEC50: < 4.52
[2]
  %max: 41.3%
[3]
  pEC50: < 4.52
[4]
  %max: 30.9%

## O=C1C(=O)N(Cc2ccc(F)cc2F)c2c(Cl)ccc(Cl)c21
[2]
  %max: 17.2%
[4]
  %max: 19.1%

## Cc1ccc2c(c1)C(=O)C(=O)N2Cc1ccccc1C
[2]
  %max: 20.2%
[4]
  %max: 29.9%

## O=C1C(=O)N(Cc2ccccc2F)c2c(Cl)ccc(Cl)c21
[2]
  %max: 12.4%
[4]
  %max: 14.7%

## Cc1ccc2c(c1)C(=O)C(=O)N2Cc1ccccc1Cl
[2]
  %max: 16.8%
[4]
  %max: 24.3%

## O=C1C(=O)N(Cc2c(F)cccc2F)c2ccc(OC(F)(F)F)cc21
[2]
  %max: 13.6%
[4]
  %max: 29.8%

## Cc1ccc2c(c1)C(=O)C(=O)N2Cc1ccc(OC(F)(F)F)cc1
[2]
  %max: 13.8%
[4]
  %max: 18.9%

## O=C1C(=O)N(Cc2ccccc2F)c2ccc(Cl)cc21
[2]
  %max: 23%
[4]
  %max: 36.3%

## Cc1ccccc1CN1C(=O)C(=O)c2cc(Cl)ccc21
[2]
  %max: 27.6%
[4]
  %max: 47.3%

## Cc1ccccc1CN1C(=O)C(=O)c2ccccc21
[2]
  %max: 43.2%
[4]
  %max: 36.3%

## O=C1C(=O)N(Cc2c(F)cccc2F)c2c(Cl)ccc(Cl)c21
[2]
  %max: 16.4%
[4]
  %max: 12.2%

## O=C1C(=O)N(Cc2ccccc2F)c2c(F)cccc21
[2]
  %max: 42.7%
[4]
  %max: 42.4%

## O=C1C(=O)N(Cc2ccc(C(F)(F)F)cc2)c2c(F)cccc21
[1]
  pEC50: 5.29
[2]
  %max: 60.9%
[3]
  pEC50: 5.49
[4]
  %max: 71.1%

## O=C1C(=O)N(Cc2ccc(OC(F)(F)F)cc2)c2ccc(OC(F)(F)F)cc21
[1]
  pEC50: < 4.52
[2]
  %max: 13.8%
[3]
  pEC50: 5.73
[4]
  %max: 58.9%

## O=C1C(=O)N(Cc2ccccc2Cl)c2ccc(Cl)cc21
[2]
  %max: 21.3%
[4]
  %max: 44.4%

## O=C1C(=O)N(Cc2c(F)cccc2F)c2ccccc21
[2]
  %max: 36.6%
[4]
  %max: 17.4%

## O=C1C(=O)N(Cc2ccc(Br)cc2F)c2c(Cl)cccc21
[3]
  pEC50: 5.33

## Cc1cccc2c1N(Cc1c(F)cccc1F)C(=O)C2=O
[2]
  %max: 17.3%
[4]
  %max: 14.4%

## O=C1C(=O)N(Cc2ccc(C(F)(F)F)cc2)c2ccccc21
[3]
  pEC50: 5.50

## COc1cccc(CN2C(=O)C(=O)c3cc(OC(F)(F)F)ccc32)c1
[1]
  pEC50: < 4.52
[2]
  %max: 28.6%
[3]
  pEC50: 5.77
[4]
  %max: 70.1%

## Cc1ccccc1CN1C(=O)C(=O)c2cc(F)ccc21
[2]
  %max: 37.7%
[4]
  %max: 40.8%

## O=C1C(=O)N(Cc2ccc(Br)cc2)c2c(F)cccc21
[1]
  pEC50: 5.40
[2]
  %max: 62.7%
[3]
  pEC50: 5.71
[4]
  %max: 51.7%

## COc1cccc(CN2C(=O)C(=O)c3cccc(Cl)c32)c1
[2]
  %max: 46.9%
[4]
  %max: 38.7%

## COc1cccc(CN2C(=O)C(=O)c3cc(C)ccc32)c1
[2]
  %max: 14.5%
[4]
  %max: 29.6%

## O=C1C(=O)N(Cc2ccc(OC(F)(F)F)cc2)c2c(Cl)cccc21
[2]
  %max: 43.6%
[4]
  %max: 72.3%

## O=C1C(=O)N(Cc2ccccc2Cl)c2ccc(F)cc21
[2]
  %max: 41.4%
[4]
  %max: 39.9%

## O=C1C(=O)N(Cc2ccc(Br)cc2)c2ccc(OC(F)(F)F)cc21
[2]
  %max: 13.2%
[4]
  %max: 47.6%

## Cc1ccc2c(c1)C(=O)C(=O)N2Cc1ccc(Br)cc1
[2]
  %max: 19%
[4]
  %max: 24.1%

## O=C1C(=O)N(Cc2ccc(F)cc2F)c2ccc(F)cc21
[2]
  %max: 47.3%
[4]
  %max: 60.3%

## O=C1C(=O)N(Cc2ccc(F)cc2F)c2ccc(OC(F)(F)F)cc21
[2]
  %max: 25.9%
[4]
  %max: 61.9%

## Cc1ccccc1CN1C(=O)C(=O)c2cc(OC(F)(F)F)ccc21
[1]
  pEC50: < 4.52
[2]
  %max: 26.2%
[3]
  pEC50: 5.48
[4]
  %max: 60%

## Cc1cccc2c1N(Cc1ccc(F)cc1F)C(=O)C2=O
[2]
  %max: 32.6%
[4]
  %max: 33.8%

## O=C1C(=O)N(Cc2ccc(C(F)(F)F)cc2)c2ccc(OC(F)(F)F)cc21
[1]
  pEC50: 5.15
[2]
  %max: 25.7%
[3]
  pEC50: 5.73
[4]
  %max: 67.2%

## O=C1C(=O)N(Cc2ccccc2F)c2c(Cl)cccc21
[2]
  %max: 50.4%
[4]
  %max: 49.5%

## O=C1C(=O)N(Cc2ccc(F)cc2F)c2ccc(Cl)cc21
[2]
  %max: 32.4%
[4]
  %max: 44.9%

## Cc1cccc2c1N(Cc1ccccc1F)C(=O)C2=O
[2]
  %max: 24.9%
[4]
  %max: 24.6%

## Cc1ccccc1CN1C(=O)C(=O)c2cccc(F)c21
[2]
  %max: 30.2%
[4]
  %max: 27.5%

## O=C1C(=O)N(Cc2ccc(F)cc2F)c2c(Cl)cccc21
[2]
  %max: 64.6%
[4]
  %max: 61.6%

## Cc1ccc2c(c1)C(=O)C(=O)N2Cc1ccc(C(F)(F)F)cc1
[2]
  %max: 22.9%
[4]
  %max: 35.5%
